Measured values reported in the supplement of paper PMC10307832.

What was measured:
Assay in all cases: relative viability (nuclei count vs DMSO), 5 days (fraction); higher = more cells survive
[1] = system: LU99A
In short: (§1)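 Relative viability divides the nuclei count in treated wells by that in vehicle wells. Lung cancer cell lines were seeded in 1536-well plates, dosed by pin tool the next day, and fixed and stained after 5 days in one step with final 0.05% Triton X-100, 1% formaldehyde and 1 ug/ml Hoechst. Dosing was a single drug or a fixed anchor-drug dose plus five library-drug doses (not always all listed) in √10 steps, and values are medians of duplicate plates imaged at 4×.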

[2] = system: HCC-78
In short: as §1

[3] = system: LOU-NH91
In short: as §1

[4] = system: NCI-H3122
In short: as §1

[5] = system: NCI-H1944
In short: as §1

[6] = system: UMC-11
In short: as §1

[7] = system: CAL-12T
In short: as §1

[8] = system: RERF-LC-KJ
In short: as §1

[9] = system: NCI-H460
In short: as §1

[10] = system: LC-2-ad
In short: as §1

[11] = system: NCI-H1755
In short: as §1

SMILES: O=c1cc(-c2cccc3c2Sc2ccccc2S3)oc(N2CCOCC2)c1 + Nc1nc2[nH]cc(CCc3ccc(C(=O)N[C@@H](CCC(=O)O)C(=O)O)cc3)c2c(=O)[nH]1 [Pemetrexed] (partner 0.2 µM)
- relative viability ([1]; first compound 0.8 µM): 0.184
- relative viability ([1]; first compound 2.53 µM): 0.324
- relative viability ([1]; first compound 8 µM): 0.187
- relative viability ([2]; first compound 0.08 µM): 0.914
- relative viability ([2]; first compound 0.253 µM): 0.943
- relative viability ([2]; first compound 0.8 µM): 0.946
- relative viability ([2]; first compound 2.53 µM): 0.882
- relative viability ([2]; first compound 8 µM): 0.928
- relative viability ([3]; first compound 0.08 µM): 0.332
- relative viability ([3]; first compound 0.253 µM): 0.34
- relative viability ([3]; first compound 0.8 µM): 0.367
- relative viability ([3]; first compound 2.53 µM): 0.397
- relative viability ([3]; first compound 8 µM): 0.31
- relative viability ([4]; first compound 0.08 µM): 0.205
- relative viability ([4]; first compound 0.253 µM): 0.197
- relative viability ([4]; first compound 0.8 µM): 0.186
- relative viability ([4]; first compound 2.53 µM): 0.191
- relative viability ([4]; first compound 8 µM): 0.18
- relative viability ([5]; first compound 0.08 µM): 0.642
- relative viability ([5]; first compound 0.253 µM): 0.518
- relative viability ([5]; first compound 0.8 µM): 0.636
- relative viability ([5]; first compound 2.53 µM): 0.516
- relative viability ([5]; first compound 8 µM): 0.698
- relative viability ([6]; first compound 0.08 µM): 0.823
- relative viability ([6]; first compound 0.253 µM): 1.04
- relative viability ([6]; first compound 0.8 µM): 0.82
- relative viability ([6]; first compound 2.53 µM): 0.791
- relative viability ([6]; first compound 8 µM): 0.935
- relative viability ([7]; first compound 0.08 µM): 1.25
- relative viability ([7]; first compound 0.253 µM): 1.39
- relative viability ([7]; first compound 0.8 µM): 1.18
- relative viability ([7]; first compound 2.53 µM): 1.04
- relative viability ([7]; first compound 8 µM): 1.03
- relative viability ([8]; first compound 0.08 µM): 0.443
- relative viability ([8]; first compound 0.253 µM): 0.469
- relative viability ([8]; first compound 0.8 µM): 0.504
- relative viability ([8]; first compound 2.53 µM): 0.474
- relative viability ([8]; first compound 8 µM): 0.469
- relative viability ([9]; first compound 0.08 µM): 0.0549
- relative viability ([9]; first compound 0.253 µM): 0.0572
- relative viability ([9]; first compound 0.8 µM): 0.0622
- relative viability ([9]; first compound 2.53 µM): 0.0639
- relative viability ([9]; first compound 8 µM): 0.0685
- relative viability ([10]; first compound 0.08 µM): 0.284
- relative viability ([10]; first compound 0.253 µM): 0.252
- relative viability ([10]; first compound 0.8 µM): 0.285
- relative viability ([10]; first compound 2.53 µM): 0.271
- relative viability ([10]; first compound 8 µM): 0.27
- relative viability ([11]; first compound 0.08 µM): 0.572
- relative viability ([11]; first compound 0.253 µM): 0.398
- relative viability ([11]; first compound 0.8 µM): 0.389
- relative viability ([11]; first compound 2.53 µM): 0.574
- relative viability ([11]; first compound 8 µM): 0.366
